In PubChem BioAssay AID1508591:

Conditions: rat; liver microsomes; pH 7.4; 15.0 min; 1.0 µM

| half-life [min] | Structure (SMILES) |
| --- | --- |
| 7.73 | c1ccc(-c2ccc(CNc3nc(-c4ccccn4)nnc3-c3ccccc3)cc2)cc1 |
| > 30 | CN1CCN(Cc2ccc(NC(=O)Cc3ccc(Oc4cc(NC(=O)C5CC5)ncn4)cc3)cc2C(F)(F)F)CC1 |
| > 30 | CC1=C(C(=O)Nc2nncs2)C2(CCCC2)N=C(Nc2nc3ccccc3o2)N1 |
| > 30 | Fc1ccc(N2CCCN(CC3[C@H]4CNC[C@@H]34)CC2)cc1 (stereo not given in full) |
| 4.31 | COc1cc(C(=O)N2CCN(c3cc(Cl)ccc3Cl)CC2)cc(OC)c1OC |
| 11 | Fc1ccc(CNc2nc(-c3ccncc3)nc3ccccc23)cc1F |
| 3.16 | COc1ccc(-c2nc3ccccc3c(=O)n2Cc2ccccc2)cc1COc1ccc(NC(C)=O)cc1 |
| > 30 | C[S+](=O)([O-])c1ccc(-c2nc(C(=O)N3CCOCC3)n3ccncc23)cc1 |
| 5.06 | CC(=O)NCCNC[C@@H]1C=C(C)[C@H](Cc2nnc(-c3ccccc3)o2)C[C@H]1C(C)C |
| > 30 | COc1ccc(-c2ccc3c(N4CCOC[C@@H]4C)nc(N4CCOC[C@@H]4C)nc3n2)cc1CO |
| 8.72 | Cc1ccc(-c2[nH]n3c(=O)c4c(nc3c2C)CCCC4)cc1 |
| > 30 | COC(=O)Nc1nc2ccc(C(=O)c3ccccc3)cc2[nH]1 |
| 5.83 | O=C(c1ccc2c(c1)ncn2-c1cccc(Cl)c1)N1CCCCC1 |
| 4.01 | O=C1C2=C(Nc3ccccc3SC2c2ccco2)c2ccccc21 (stereo not given) |
| > 30 | C[C@@H]1COCCN1c1cc(C2(S(C)(=N)=O)CC2)nc(-c2ccnc3[nH]ccc23)n1 (stereo not given in full) |
| > 30 | Cc1ccc(-c2cc(C(=O)Nc3ccc(S(N)(=O)=O)cc3)c3cccc(C)c3n2)cc1C |
| 1.48 | CCCC1=Nc2cc(C(=O)NC3CCCCC3)ccc2Sc2ccc(C)cc21 |
| 9.18 | COCCn1ccc2c(C3=CCOCC3)nc(-c3ccc4c(c3)CNC4=O)cc21 |
| > 30 | Cc1csc2c1c(=O)n(O)c(=O)n2Cc1ccccc1 |
| 13.7 | CCc1oc2ccccc2c1C(=O)c1cc(I)c(O)c(I)c1 |

| half-life [min] | Structure (SMILES) |
| --- | --- |
| 2.32 | Cc1ccc(C)c(CN2C(=O)c3ccccc3S(=O)c3ccc(C(=O)N4CCN(c5ccccc5F)CC4)cc32)c1 (stereo not given) |
| 6.82 | Cc1ccccc1CN1C2=NCCN2C(=O)C2=C1CCN(Cc1ccccc1)C2 |
| 1.98 | O=C(NCc1ccccc1)c1nc(S(=O)(=O)Cc2ccc(F)cc2)ncc1Cl |
| 6.5 | O=C1CCCC2=C1C(c1ccncc1Br)N=C(Nc1nc3ccccc3o1)N2 (stereo not given) |
| > 30 | O=C(Nc1ncc(Cc2ccc(C(F)(F)F)cc2)s1)c1cnc(-c2ccccc2)[nH]1 |
| 2.58 | O=C(Nc1ncccc1O)c1ccc(S(=O)(=O)Nc2ccccc2)cc1 |
| 11 | COc1ccc(NC(=O)c2cccnc2C)cc1S(=O)(=O)Nc1ccc(Br)cc1 |
| 3 | CN1CCN(C(c2ccccc2)c2ccc(Cl)cc2)CC1 (stereo not given) |
| > 30 | O=C(Nc1ccc(S(=O)(=O)Nc2nccs2)cc1)c1cc(-c2ccccc2)nc2ccccc12 |
| 7.6 | COc1ccc(S(=O)(=O)N2CCN(C(=O)C3COc4ccccc4O3)CC2)cc1 (stereo not given) |
| 2.43 | CC(C)C(=O)N1CCc2ccc(OCc3nc(C(=O)N4CCCC4)co3)cc2C1c1cccc(F)c1 (stereo not given) |
| 2.34 | CCOc1ccccc1N1CC(c2nc3ccccc3n2CCOc2ccc(C(C)(C)C)cc2)CC1=O (stereo not given) |
| > 30 | Cc1cc(N[S+](=O)([O-])c2ccc(NC(=O)Cc3ccc(F)c(F)c3)cc2)no1 |
| 1.6 | Cc1ccc(S(=O)(=O)Nc2ccccc2C(=O)Nc2nccs2)cc1 |
| > 30 | COc1ccc(-n2nc(C3CCCN(C(=O)c4ccccc4F)C3)[nH]c2=O)cc1 (stereo not given) |
| > 30 | O=C1Nc2ccc(Cl)cc2/C1=C\c1cc(Cl)c(O)c(Cl)c1 |
| 2.89 | CN1CCCN(C(c2ccccc2)c2ccc(Cl)cc2)CC1 (stereo not given) |
| 1.49 | O=C(Nc1ccccc1F)c1nc(S(=O)(=O)Cc2ccccc2F)ncc1Cl |
| 2.27 | CCOC(=O)c1[nH]c(C)c(CCC(=O)N2CCN(c3cccc(C)c3C)CC2)c1C |
| 28 | Cc1cc(C)nc(NC(=S)N2CCN(c3cccc(C(F)(F)F)n3)CC2)c1 |
